Earlier results in US20130203858A1, “Fast-Dissolving Solid Pharmaceutical Form for Treating Bacterial Infections” (Nanocore Biotecnologia S.A., priority 2010, published 2013).

Assays:
[1] = WO2009/061780 composition in the absence of PVP

SMILES: CS(=O)(=O)c1ccc([C@@H](O)[C@@H](CF)NC(=O)C(Cl)Cl)cc1 [florfenicol, Florfenicol]
- portion of the drug solubilized in water [1]: about 40%
- solubility in water: about 1.2 mg/mL
- portion of the drug that solubilises in water (without addition of surfactants): about 20%
